Consider three molecules from paper PMC9421656, “Beyond Retigabine: Design, Synthesis, and Pharmacological Characterization of a Potent and Chemically Stable Neuronal Kv7 Channel Activator with Anticonvulsant Activity” (Journal of Medicinal Chemistry, 2022).

For one data set, the system named is epileptic activity. Set-up: method as in PMID 25319542. To be noted: cited from earlier work.
For data set [1] the following is noted: literature value; cited from earlier work.
The target in data set [2] is T1, Kv7.2/Kv7.3 channels (Homo sapiens, UniProt O43525+O43526). Description: Whole-cell patch-clamp electrophysiology in CHO cells expressing Kv7.2/Kv7.3. Set-up: expressed in transfected cells; host or cells: CHO cells, transient transfection (pcDNA3.1, Lipofectamine 2000). The note with it: for EC50: dose-response 0.01–30 μM. Type of data set: cell-based. As for the experimental part: Channel subunits were expressed in Chinese hamster ovary (CHO) cells by transient transfection, using plasmids containing cDNAs encoding human Kv7.2 and/or Kv7.3, all cloned in the pcDNA3.1 vector. According to the experimental protocol, these plasmids were expressed individually or in combination, together with a plasmid-expressing enhanced green fluorescent protein (Clontech, Palo Alto, CA) used as a transfection marker. Total cDNA in the transfection mixture was kept at 4 μg. CHO cells were grown in 100 mm plastic Petri dishes in Dulbecco’s modified Eagle’s medium containing 10% fetal bovine serum, nonessential amino acids (0.1 mM), penicillin (50 U/mL), and streptomycin ([…]) in a humidified atmosphere at 37 °C with 5% CO2.
Currents from CHO cells were recorded at room temperature (20–22 °C) using the whole-cell configuration of the patch-clamp technique, with glass micropipettes of 3–5 MΩ resistance. During the recording, constant perfusion of extracellular solution was maintained. […] The pipette (intracellular) solution contained (in mM): 140 KCl, 2 MgCl2, 10 EGTA, 10 HEPES, 5 Mg^2+-ATP, at pH 7.3–7.4, with KOH. […] To evaluate the activity of each compound on Kv7.2 + Kv7.3 currents, the cells were clamped at −80 mV and conductance–voltage curves (G/V curves; activation curves) were generated by normalizing to the maximal value of the instantaneous isopotential currents at 0 mV and expressing the normalized values as a function of the preceding voltages. Data were fit to a Boltzmann distribution of the following form: y = max/[1 + exp (V1/2 – V)/k], where V is the test potential, V1/2 is the half-activation potential, and k is the slope factor.
Indicated EC50 values are the mean of at least three independent experiments ± standard error of the mean (SEM).
Statistically significant differences in electrophysiological data were evaluated with the Student t test or with ANOVA followed by the Student–Newman–Keuls test when multiple groups were compared, with the threshold set at p < 0.05. […] Values are expressed as the […] mean ± standard error of the mean (SEM) of at least three cells recorded in at least three independent transfections.
In general terms: Patch clamp records ionic current or voltage across a cell membrane.

The target in data set [3] is T1, Kv7.2/Kv7.3 channels. Set-up: expressed in transfected cells. To be noted: cited from earlier work.
The target of data set [4] is T1, Kv7.2/Kv7.3 channels. Description: FluxOR thallium-sensitive fluorescence-based assay in CHO cells stably expressing Kv7.2 + Kv7.3. Set-up: expressed in transfected cells. It is filed as cell-based. As to the method:
While assay robustness in Kv7.2/Kv7.3-expressing cells was high (Z′ factor > 0.5),[27] the Z′ factor calculated in CHO cells expressing Kv7.2 subunits alone was <0.5; thus, all subsequent pharmacological screens were performed in Kv7.2/Kv7.3-expressing cells. […] The Kv7.2/Kv7.3-stable cell line was generated using a plasmid-based PiggyBac transposon system that enables genomic integration of multiple independent transposons containing distinct cDNA sequences. cDNAs for KCNQ2 and KCNQ3 genes (encoding for Kv7.2 and Kv7.3, respectively) were cloned into two different PiggyBac expression vectors (pB-CMV-MCS-EF1α-RedPuro, System Biosciences), and these two plasmids, together with a plasmid encoding for the transposase (System Biosciences), were transfected into CHO cells using Lipofectamine 2000 (Invitrogen) as indicated in the protocol provided by the seller company.
The selected clone stably expressing Kv7.2/Kv7.3 channels was grown in DMEM supplemented with 10% FBS, 50 U/mL Pen-Strep, 2 mM L-glutamine (all purchased from Gibco), and 4 μg/mL puromycin (Sigma) in a humidified atmosphere at 37 °C with 5% CO2. […] A kinetic dispense microplate reader (FLUOstar Optima) was used to read the plate, setting the excitation filter at 485 nm and the emission filter at 520 nm; “Stimulus buffer” prepared as indicated in the protocol was automatically added to wells after 5 s of recording; the plate was read every 1 s, for 50 s. The results were analyzed using Optima Data Analysis and Microsoft Excel.
Only experiments resulting in a Z′ > 0.5 were considered. Data shown (Figures 1D,E,F,G and 3B) were obtained from at least three independent experiments.
Data were analyzed using the GraphPad Prism 8.0.2 (GraphPad Software, LaJolla, CA). Statistically significant differences in the initial slope of the curves were evaluated through ordinary one-way ANOVA, and multiple comparisons were corrected with the Tukey test. […] Indicated EC50 values are the mean of at least three independent experiments ± standard error of the mean (SEM).

The next data set relates to Kv7.2/Kv7.3 channel. To be noted: TEA blockade of heteromeric Kv7.2/Kv7.3; cited from earlier work.
The subject of another data set is Kv7.2. The note with it: TEA blockade of Kv7.2; cited from earlier work.
The target of the next data set is Kv7.2/Kv7.3 currents (Homo sapiens, UniProt O43525+O43526). The note with it: 3 mM TEA. As to the method: To ensure that both Kv7.2 and Kv7.3 subunits were expressed into the selected clone and formed heteromeric channels, pharmacological experiments with the Kv7 channel blocker tetraethylammonium (TEA) were performed.[64] […] The effect of TEA blockade on Kv7.2/Kv7.3 currents on the selected clone was compared to that of the blockade exerted on the control group, represented by CHO cells transiently transfected with Kv7.2/Kv7.3 channels. The effect of the TEA blockade was investigated using a ramp protocol in which Kv7.2/Kv7.3 currents were activated by 3 s voltage ramps from −80 to +20 mV.

Like-named read-outs stand apart in the source and are kept apart here.

Chain of Kv7.2/Kv7.3 currents (O43526 whole entry): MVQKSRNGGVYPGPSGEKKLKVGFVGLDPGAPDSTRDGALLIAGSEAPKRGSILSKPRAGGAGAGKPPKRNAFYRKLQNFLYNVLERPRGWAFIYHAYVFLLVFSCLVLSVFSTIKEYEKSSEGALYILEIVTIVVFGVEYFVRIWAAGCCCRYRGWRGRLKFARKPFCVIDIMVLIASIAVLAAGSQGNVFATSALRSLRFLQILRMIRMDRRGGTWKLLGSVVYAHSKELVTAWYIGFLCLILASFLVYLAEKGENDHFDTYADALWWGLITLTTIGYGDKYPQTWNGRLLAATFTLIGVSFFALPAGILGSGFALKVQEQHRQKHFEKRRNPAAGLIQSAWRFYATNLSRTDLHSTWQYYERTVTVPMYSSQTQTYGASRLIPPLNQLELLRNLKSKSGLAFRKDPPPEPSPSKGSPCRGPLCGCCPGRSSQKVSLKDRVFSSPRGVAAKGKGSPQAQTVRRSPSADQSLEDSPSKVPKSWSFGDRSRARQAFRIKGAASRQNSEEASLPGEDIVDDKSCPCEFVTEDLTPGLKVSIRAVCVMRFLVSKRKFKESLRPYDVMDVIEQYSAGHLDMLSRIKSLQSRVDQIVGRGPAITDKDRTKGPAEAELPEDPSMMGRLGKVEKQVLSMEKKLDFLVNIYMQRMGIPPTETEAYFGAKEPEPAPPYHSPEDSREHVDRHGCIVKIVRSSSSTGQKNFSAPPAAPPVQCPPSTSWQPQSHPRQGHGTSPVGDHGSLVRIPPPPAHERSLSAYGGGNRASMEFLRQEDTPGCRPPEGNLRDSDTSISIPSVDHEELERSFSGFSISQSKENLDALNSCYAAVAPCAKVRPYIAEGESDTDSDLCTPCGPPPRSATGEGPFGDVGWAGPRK
Chain of Kv7.2/Kv7.3 currents (O43525 whole entry): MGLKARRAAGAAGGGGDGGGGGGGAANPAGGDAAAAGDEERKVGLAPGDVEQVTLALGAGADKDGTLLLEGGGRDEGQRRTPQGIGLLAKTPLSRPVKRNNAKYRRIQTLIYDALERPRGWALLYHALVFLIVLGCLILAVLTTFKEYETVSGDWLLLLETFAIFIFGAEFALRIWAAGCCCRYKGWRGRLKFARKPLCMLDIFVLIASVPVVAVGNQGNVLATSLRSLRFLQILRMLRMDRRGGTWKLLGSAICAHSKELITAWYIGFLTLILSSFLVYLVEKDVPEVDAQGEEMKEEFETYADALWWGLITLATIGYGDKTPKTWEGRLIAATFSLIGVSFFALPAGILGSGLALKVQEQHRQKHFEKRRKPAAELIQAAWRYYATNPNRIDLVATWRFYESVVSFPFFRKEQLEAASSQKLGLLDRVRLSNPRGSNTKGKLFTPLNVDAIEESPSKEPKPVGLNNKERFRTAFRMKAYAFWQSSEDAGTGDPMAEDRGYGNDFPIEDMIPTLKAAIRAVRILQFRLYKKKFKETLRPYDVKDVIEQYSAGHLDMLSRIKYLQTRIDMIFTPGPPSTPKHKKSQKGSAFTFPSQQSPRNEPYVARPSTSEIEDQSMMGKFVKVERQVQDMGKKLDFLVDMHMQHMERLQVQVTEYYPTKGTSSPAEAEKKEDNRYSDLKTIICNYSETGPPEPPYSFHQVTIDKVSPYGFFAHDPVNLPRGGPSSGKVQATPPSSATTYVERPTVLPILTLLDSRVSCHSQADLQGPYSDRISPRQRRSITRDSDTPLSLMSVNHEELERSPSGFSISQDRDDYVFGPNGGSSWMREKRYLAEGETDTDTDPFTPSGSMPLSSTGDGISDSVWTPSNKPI

With `C#CCN(Cc1ccc(F)cc1)c1ccc(NC(=O)OCC)c(N)c1` [P-RET, N-propargyl retigabine], in the data set on epileptic activity, the “In vivo potency higher than retigabine (suppression of epileptic activity)” value is reported as 2.5 times. The molecule also had a logP in “Lipophilicity (log P)” of 3.48. The “Increase in brain/plasma ratio compared to retigabine” value in data set [1] is on record as 14 fold.
Consider `CCOC(=O)Nc1ccc(NCc2ccc(C(F)(F)F)cc2)c(F)c1N` [RL-81], for which, on Kv7.2/Kv7.3 channels [2] (1 μM), the “Leftward shift in V1/2 (ΔV1/2)” value is “about 40 mV”. For the same molecule, the “Idrug/Icontrol (maximal current density)” value at Kv7.2/Kv7.3 channels [2] (calculated at +20 mV) was 1.6 ± 0.2. Besides, the EC50 was found to be 0.27 ± 0.04 µM at Kv7.2/Kv7.3 channels [2] (current at +20 mV, read-out: Maximal currents EC50); 0.24 ± 0.06 µM at Kv7.2/Kv7.3 channels [2] (read-out: ΔV1/2 EC50); 4 ± 1 µM at Kv7.2/Kv7.3 channels [4] (FluxOR dose-response, slope parameter, read-out: EC50 (initial slope of the fluorescence signal)). Moreover, the “Potency over retigabine as Kv7.2/Kv7.3 activator (fold/times)” value at Kv7.2/Kv7.3 channels [2] (from ΔV1/2 EC50) worked out at 10. Also, the “Potency relative to retigabine as a Kv7 activator in vitro” value at Kv7.2/Kv7.3 channels [3] is given as over 15 times. Besides, on Kv7.2/Kv7.3 channels [4] (10 μM, initial slope of FluxOR signal between 5 and 15 s, mean ± SEM), the “Slope of the fluorescent signal at 10 μM” value amounted to 0.0272±0.0014.
For the molecule `CC[N+](CC)(CC)CC` [TEA, tetraethylammonium], the IC50 with Kv7.2/Kv7.3 channel is 3000 µM; with Kv7.2, 300 µM. Further, the Current inhibition result on Kv7.2/Kv7.3 currents (CHO cells transiently transfected with Kv7.2/Kv7.3 (control group)) is “about 55%”; on Kv7.2/Kv7.3 currents (selected stable clone (clone 5)) it was “about 35%”.

A word on the logP: it is a log measure of how a compound divides between an organic and an aqueous phase. A low value points to a more hydrophilic compound. As usually defined, the IC50 is the concentration that gives 50% inhibition.
